Earlier results in patent US20120083452A1, “Topical Anesthetic Uses of Szeto-Schiller Peptides” (priority 2010, published 2012).
Square brackets hold non-standard residues; d marks the D form. Ends that are not written are not given here. Dmt = Cc1cc(O)cc(C)c1C[C@H](N)C(=O)O

Assays:
[1] = tested on: LDL; conditions: compared with SS-02
[2] = tested on: isolated mitochondria; conditions: for MPP+-induced inhibition of oxygen consumption: MPP+ (1-methyl-4-phenylpyridium)
[3] = compared with SS-02
[4] = tested on: mice; conditions: mice studies

| Substance | inhibiting LDL oxidation [1] | MPP+-induced inhibition of ATP production [2] | MPP+-induced mitochondrial swelling [2] | MPP+-induced inhibition of oxygen consumption [2] | scavenging H2O2 [3] | treatment of Parkinson's Disease (PD) or Amyotrophic Lateral Sclerosis (ALS) [4] |
| --- | --- | --- | --- | --- | --- | --- |
| D-Arg-2′,6′-Dmt-Lys-Phe-NH2 ([dR][Dmt]KF-NH2) [SS-31] | as effective as SS-02 | prevented | prevented | prevented | as effective as SS-02 | may be effective |
| Phe-D-Arg-Phe-Lys-NH2 (F[dR]FK-NH2; N-terminus assumed; SMILES N=C(N)NCCC[C@@H](NC(=O)[C@@H](N)Cc1ccccc1)C(=O)N[C@@H](Cc1ccccc1)C(=O)N[C@@H](CCCCN)C(N)=O) [SS-20] | – | prevented | prevented | prevented | eliminated the scavenging ability | may be effective |
